Reference: PMC8151276, “An Integrated Approach toward NanoBRET Tracers for Analysis of GPCR Ligand Engagement” (Molecules, 2021)

Molecular target: T1, F2RL1 (Homo sapiens, UniProt P55085)
T1 construct: purchased Promega (in-house HiBiT-GPCR construct library, NanoBRET)
T1 sequence (P55085 26-397): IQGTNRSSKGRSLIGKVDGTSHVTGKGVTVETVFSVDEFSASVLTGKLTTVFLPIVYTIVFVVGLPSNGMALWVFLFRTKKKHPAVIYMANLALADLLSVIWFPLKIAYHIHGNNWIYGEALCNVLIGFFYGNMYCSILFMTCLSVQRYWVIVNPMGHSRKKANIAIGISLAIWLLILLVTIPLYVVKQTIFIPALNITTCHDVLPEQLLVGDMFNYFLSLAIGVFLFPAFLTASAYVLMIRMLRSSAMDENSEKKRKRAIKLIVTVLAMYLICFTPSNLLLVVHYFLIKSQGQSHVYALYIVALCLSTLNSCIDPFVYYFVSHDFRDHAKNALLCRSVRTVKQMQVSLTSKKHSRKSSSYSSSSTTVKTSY
Test: NanoBRET screen HiBiT-F2RL1 in HEK293
Format: binding
Method: Each tracer candidate was screened across the entire library of HiBiT-GPCR constructs using NanoBRET as the detection modality. As depicted in Figure 4A, the specificity of interactions was evaluated through decrease in BRET due to competitive displacement of a bound tracer by excess parental compound. Each tracer was analyzed for binding to each HiBiT-GPCR fusion in the absence and in the presence of competing parental compound. Briefly, HEK293 cells were transfected with HiBiT-GPCR constructs diluted into promoterless DNA to reduce expression and maximize translocation to the cell surface. Each tracer candidate was then screened at concentrations of 1 μM and 0.1 μM across cells expressing these fusions. Cells were treated for 1.5 h with tracer either alone or in the presence of 20 μM competing parental compound (i.e., control). BRET was measured upon addition of purified LgBiT and subsequent complementation with HiBiT genetically fused to a GPCR. The specificity of interactions was assessed through a decrease in BRET signal due to competitive displacement of the bound tracer. To further gauge the robustness of these interactions, the fold response over the control (i.e., BRETtracer/BRETcontrol) was calculated. We chose a 1.5-fold response, which translates to ≥7-fold signal over noise as the minimal threshold required to score an interaction as positive. […]. Below we highlight the screening results obtained for our exemplary fluorescent tracers based on Clozapine, Amitriptyline and AZD1283.
HiBiT-GPCR DNA constructs were diluted in 10 mM Tris pH 8 to a final concentration of 0.01 μg/μL, arrayed in 96-well plates and stored at −20 °C. For transfection, HEK293 cells were suspended in Opti-MEM (without phenol red) supplemented with 2% fetal bovine serum (Seradigm) and 100 units/mL penicillin–streptomycin (Gibco) at a final concentration of 220,000 cells/mL and dispensed into white 96-well plates at 90 μL/well. Subsequent transfections and screens were carried using an Agilent Bravo Automated Liquid Handling Platform. First, the 96-well HiBiT DNA arrays were diluted 25-fold in Opti-MEM (without serum or phenol red) to a final concentration of 0.0004 μg/μL and 20 μL of the diluted DNAs were transferred into new 96-well plates. Next, promoterless carrier DNA (1 μg/μL) was diluted 25-fold (0.04 μg/μL) and then dispensed into the diluted arrays at 20 μL/well. Following brief mixing, Viafect transfection reagent (Promega) diluted 16-fold into Opti-MEM was dispensed into the plates at 40 μL/well. After mixing by pipetting, plates were incubated for 10 min on the pipetting station deck. The DNA-transfection reagent complexes were then added to plates containing cells. To facilitate the screen, 10 μL of DNA-transfection reagent complexes were added in duplicates to the top 4 and bottom 4 rows, resulting in two identical 48-well arrays per plate. Plates with transfected cells were incubated for 18–20 h at 37 °C/5% CO2. A screen of each tracer across the entire library using two different concentrations requires duplicate plates of transfected cells. Depending on the number of tracers being screened, transfections can be scaled up using the same ratios. The next day, for each tracer, four 20× screening solutions in tracer dilution buffer (Promega) were prepared: two duplicates at final concentration of 20 μM and two duplicates at a final concentration of 2 μM. A competing unmodified compound was added to one of each duplicate at a final concentration of 400 μM. The four resulting solutions were diluted 4-fold in Opti-MEM without serum or phenol red to generate 5× solutions (5 µM and 0.5 µM tracer +/− 100 μM competing compound). To screen the library, a BioTek MultiFlo FX liquid dispenser was used to dispense 22.5 µL of tracer solution to the top 4 rows and 22.5 µL tracer + competing compound solution to the 4 bottom rows. Plates were briefly mixed on an orbital shaker and incubated for 1.5 h at room temperature. […]

SMILES | NanoBRET Fold Response (F2RL1, tracer 0.1μM) | NanoBRET Fold Response (F2RL1, tracer 1μM) | other results
CN1CCN(C2=Nc3cc(Cl)ccc3Nc3ccc(CNC(=O)CCOCCOCCOCCOCCNC(=O)CCc4ccc5n4[B-](F)(F)[N+]4=C(c6ccc[nH]6)C=CC4=C5)cc32)CC1 [Clozapine-b-2-NB590] | – | – | NanoBRET Fold Response (F2RL1, 0.1μM tracer): 1.00; NanoBRET Fold Response (F2RL1, 1μM tracer): 1.06
CN(C)CCC=C1c2ccccc2CCc2ccc(C(=O)NCCNC(=O)CCOCCOCCOCCOCCNC(=O)CCc3ccc4n3[B-](F)(F)[N+]3=C(c5ccc[nH]5)C=CC3=C4)cc21 [Amitriptyline-b-2-NB590] | – | – | NanoBRET Fold Response (tracer at 0.1μM, listed as amitriptyline-b-2-NB590): 1.10; NanoBRET Fold Response (tracer at 1μM, listed as amitriptyline-b-2-NB590): 1.00
CCOC(=O)c1cc(C#N)c(N2CCC(C(=O)NS(=O)(=O)Cc3ccccc3/C=C/C(=O)NCCNC(=O)CCc3ccc4n3[B-](F)(F)[N+]3=C(c5ccc[nH]5)C=CC3=C4)CC2)nc1C [AZD1283-1-NB590] | – | – | NanoBRET Fold Response (F2RL1, 0.1μM): 1.06; NanoBRET Fold Response (F2RL1, 1μM): 1.06
CC(C)N(CC[C@H](c1ccccc1)c1cc(CCNC(=O)CCOCCOCCOCCOCCNC(=O)CCc2ccc3n2[B-](F)(F)[N+]2=C(c4ccc[nH]4)C=CC2=C3)ccc1O)C(C)C [Tolterodine-2-NB590] | 1.07 | 1.03 | –
CC(C)N(CC[C@H](c1ccccc1)c1cc(CCNC(=O)c2ccc(CNC(=O)CCc3ccc4n3[B-](F)(F)[N+]3=C(c5ccc[nH]5)C=CC3=C4)cc2)ccc1O)C(C)C [Tolterodine-BZ-NB590] | 0.97 | 0.98 | –
O=C(CCOCCOCCOCCOCCNC(=O)CCc1ccc2n1[B-](F)(F)[N+]1=C(c3ccc[nH]3)C=CC1=C2)NCCCN1CCN(C2=Nc3ccccc3Oc3ccc(Cl)cc32)CC1 [Loxapine-a-2-NB590] | 1.12 | 1.14 | –
CN1CCN(C2=Nc3cc(Cl)ccc3N(CC(=O)NCCOCCOCCOCCOCCNC(=O)CCc3ccc4n3[B-](F)(F)[N+]3=C(c5ccc[nH]5)C=CC3=C4)c3ccccc32)CC1 [Clozapine-c-2-NB590] | – | – | NanoBRET Fold Response (F2RL1, 0.1μM tracer): 0.97; NanoBRET Fold Response (F2RL1, 1μM tracer): 1.00
CN(C)CCC=C1c2ccccc2CCc2ccc(C(=O)NCCNC(=O)CCOCCOCCOCCOCCNC(=O)CCc3ccc4n3[B-](F)(F)[N+]3=C(c5ccc[nH]5)C=CC3=C4)cc21 [Amitriptyline-a-2-NB590] | – | – | NanoBRET Fold Response (tracer at 0.1μM): 1.01; NanoBRET Fold Response (tracer at 1μM): 1.07
Cc1nc2n(c(=O)c1CCN1CCC(c3noc4cc(F)ccc34)CC1)CCCC2OC(=O)NCCOCCOCCOCCOCCNC(=O)CCc1ccc2n1[B-](F)(F)[N+]1=C(c3ccc[nH]3)C=CC1=C2 (stereo not shown) [Risperidone-2-NB590] | 1.00 | 0.94 | –
COc1ccc2[nH]c(-c3ccc(CNC(=O)CCOCCOCCOCCOCCNC(=O)CCc4ccc5n4[B-](F)(F)[N+]4=C(c6ccc[nH]6)C=CC4=C5)cc3)c(CCNC(C)=O)c2n1 [AzomelatoninICO9-2-NB590] | – | – | NanoBRET Fold Response (0.1μM tracer): 0.95; NanoBRET Fold Response (1μM tracer): 0.83
COc1ccccc1N1CCN(CCCCN2C(=O)c3ccc(CNC(=O)CCOCCOCCOCCOCCNC(=O)CCc4ccc5n4[B-](F)(F)[N+]4=C(c6ccc[nH]6)C=CC4=C5)cc3C2=O)CC1 [NAN-190-2-NB590] | 0.96 | 0.98 | –
O=C(CCc1ccc2n1[B-](F)(F)[N+]1=C(c3ccc[nH]3)C=CC1=C2)NCCOCCOCCNC(=O)OCCOCCN1CCN(C2=Nc3ccccc3Sc3ccccc32)CC1 [Quetiapine-a-2-NB590] | 0.88 | 0.71 | –
O=C(CCOCCOCCOCCOCCNC(=O)CCc1ccc2n1[B-](F)(F)[N+]1=C(c3ccc[nH]3)C=CC1=C2)NCCCN1CCN(C2=Nc3cc(Cl)ccc3Nc3ccccc32)CC1 [Clozapine-a-2-NB590] | – | – | NanoBRET Fold Response (F2RL1, 0.1μM tracer): 0.89; NanoBRET Fold Response (F2RL1, 1μM tracer): 1.16
N#CN=C(NCCCOc1cccc(CN2CCCCC2)c1)NCCNC(=O)CCOCCOCCOCCOCCNC(=O)CCc1ccc2n1[B-](F)(F)[N+]1=C(c3ccc[nH]3)C=CC1=C2 [Aminopotentidine-2-NB590] | 1.03 | 0.99 | –
O=C(CCc1ccc2n1[B-](F)(F)[N+]1=C(c3ccc[nH]3)C=CC1=C2)NCc1ccc(C(=O)NCCOCCOCCNCC(O)COc2cccc3ccccc23)cc1 (stereo not shown) [Propranolol-3-NB590] | – | – | NanoBRET Fold Response (F2RL1, 0.1μM): 1.05; NanoBRET Fold Response (F2RL1, 1μM): 1.07
O=C(CCc1ccc2n1[B-](F)(F)[N+]1=C(c3ccc[nH]3)C=CC1=C2)NCc1ccc(C(=O)NCCOCCC(=O)N[C@@H]2CC[C@@]3(O)[C@H]4Cc5ccc(O)c6c5[C@@]3(CCN4CC3CC3)[C@H]2O6)cc1 [Naltrexone-3-NB590] | 0.79 | 0.91 | –
COc1ccccc1N1CCN(CCCCN2C(=O)c3ccc(CNC(=O)CCOCCNC(=O)c4ccc(CNC(=O)CCc5ccc6n5[B-](F)(F)[N+]5=C(c7ccc[nH]7)C=CC5=C6)cc4)cc3C2=O)CC1 [NAN-190-3-NB590] | 0.96 | 1.08 | –
Cc1cc2c(s1)Nc1ccccc1N=C2N1CCN(CCCNC(=O)CCOCCOCCOCCOCCNC(=O)CCc2ccc3n2[B-](F)(F)[N+]2=C(c4ccc[nH]4)C=CC2=C3)CC1 [Olanzapine-a-2-NB590] | 1.04 | 0.96 | –
CCCn1c(=O)c2[nH]c(-c3ccc(OCC(=O)NCCNC(=O)CCOCCNC(=O)c4ccc(CNC(=O)CCc5ccc6n5[B-](F)(F)[N+]5=C(c7ccc[nH]7)C=CC5=C6)cc4)cc3)nc2n(CCC)c1=O [XAC-3-NB590] | 1.04 | 0.97 | –
COc1ccc2c(n1)c(CCNC(C)=O)cn2CCNC(=O)CCc1ccc2n1[B-](F)(F)[N+]1=C(c3ccc[nH]3)C=CC1=C2 [Azamelatonin-1-NB590] | – | – | NanoBRET Fold Response (0.1μM tracer): 1.21; NanoBRET Fold Response (1μM tracer): 0.93
